# Laboratory results published in ChEMBL document CHEMBL1130672, “Evaluation of a structure-based statine cyclic diamino amide encoded combinatorial library against plasmepsin II and cathepsin D” (Bioorg Med Chem Lett, 1998).
# How the values were obtained:
# Cathepsin D = Cathepsin D (Homo sapiens, UniProt P07339); assay: Compound was tested for inhibitory activity against cathepsin D
# Plasmepsin II = Plasmepsin II (Plasmodium falciparum, UniProt P46925); assay: Inhibitory activity against plasmepsin-2
# Chain of Plasmepsin II (P46925 whole entry): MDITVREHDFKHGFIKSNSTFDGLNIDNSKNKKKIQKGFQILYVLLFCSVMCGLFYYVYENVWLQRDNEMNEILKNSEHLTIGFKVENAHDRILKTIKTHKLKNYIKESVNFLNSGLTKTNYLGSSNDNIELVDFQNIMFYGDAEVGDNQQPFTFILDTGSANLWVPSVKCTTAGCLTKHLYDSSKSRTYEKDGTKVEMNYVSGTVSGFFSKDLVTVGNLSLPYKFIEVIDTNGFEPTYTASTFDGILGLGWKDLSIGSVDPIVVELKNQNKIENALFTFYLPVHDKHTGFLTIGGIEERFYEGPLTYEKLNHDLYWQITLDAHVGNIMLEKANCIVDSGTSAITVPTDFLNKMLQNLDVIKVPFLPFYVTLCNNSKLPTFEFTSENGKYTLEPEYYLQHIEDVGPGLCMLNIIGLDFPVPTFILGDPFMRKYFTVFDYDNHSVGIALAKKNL
# Plasmodium falciparum = assay: Inhibitory concentration for Plasmodium falciparum culture; format: functional, organism-based
# Chain of Cathepsin D (P07339 65-162 limits assumed): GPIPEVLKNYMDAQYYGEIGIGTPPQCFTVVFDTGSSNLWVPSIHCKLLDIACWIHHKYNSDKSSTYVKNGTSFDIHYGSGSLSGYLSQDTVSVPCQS
# Chain of Cathepsin D (P07339 169-412 limits assumed): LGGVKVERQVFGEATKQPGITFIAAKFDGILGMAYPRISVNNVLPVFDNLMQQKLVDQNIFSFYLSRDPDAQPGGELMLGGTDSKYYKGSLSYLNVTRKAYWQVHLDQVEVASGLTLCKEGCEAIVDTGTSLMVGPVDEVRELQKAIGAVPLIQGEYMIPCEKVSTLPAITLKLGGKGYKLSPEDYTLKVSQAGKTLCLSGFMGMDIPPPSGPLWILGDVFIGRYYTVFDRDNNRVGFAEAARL
Ki (Cathepsin D),IC50 (Plasmepsin II),IC50 (Cathepsin D),IC50 (Plasmodium falciparum),Ki (Plasmepsin II),Structure (SMILES)
1.8 µM,~65 µM,–,–,–,CCCCNC(=O)C[C@H](O)[C@H](Cc1ccccc1)NC(=O)C1CN(CCOCCc2ccccc2)CCN1C(=O)CCc1cc(OC)c(OC)c(OC)c1 (some centres undefined)
–,–,~45 µM,3 µM,0.49 µM,CCCCNC(=O)C[C@H](O)[C@H](Cc1ccccc1)NC(=O)CC1CN(Cc2ccc(-c3ccccc3)cc2)CCN1C(=O)CC(CN)c1ccc(Cl)cc1 (some centres undefined)
5.3 µM,~40 µM,–,–,–,CCCCNC(=O)C[C@H](O)[C@H](Cc1ccccc1)NC(=O)CC1CN(Cc2cc(OC)c(OC)c(OC)c2)CCN1C(=O)c1ccc(OC(C)C)cc1 (some centres undefined)
1.1 µM,~100 µM,–,–,–,CCCCNC(=O)C[C@H](O)[C@H](Cc1ccccc1)NC(=O)C1CN(C(=O)CCCCC(=O)OCC)CCN1C(=O)CCc1cc(OC)c(OC)c(OC)c1 (some centres undefined)
